Columns and labels:
Type in all cases: biochemical
[1] = target: Btk (Homo sapiens, UniProt Q06187); assay: Btk kinase activity, TR-FRET assay; details: read-out: Btk (IC50)
Procedure, shortened: (§1)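 Enzyme (Btk 0.5 nM; Lck 6 nM) reacted 1 h with inhibitor, ATP at Km and biotin-peptide substrate in pH 7.4 buffer, 10% DMSO. Phosphopeptide detected by Eu-p-Tyr100 antibody plus streptavidin-APC (665/615 nm). IC50 calculated from fitted Ki(app) via ATP/Km correction plus half total enzyme.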

[2] = target: EGFR (Homo sapiens, UniProt P00533); assay: Inhibition of a panel of kinases, in vitro HotSpot kinase assay: EGFR
Procedure: (§2) The degree of inhibition of a panel of kinases is determined using the in vitro HotSpot kinase assay (purified enzymes, ^33P-ATP, an appropriate substrate and 1 uM ATP).

[3] = target: Lck (Homo sapiens, UniProt P06239); assay: Lck kinase activity, TR-FRET assay; details: read-out: LCK (IC50)
Procedure, shortened: as §1

[4] = target: T1, JAK3 (Homo sapiens, UniProt P52333); assay: Inhibition of a panel of kinases, in vitro HotSpot kinase assay: JAK3
T1 sequence (P52333 1-1124): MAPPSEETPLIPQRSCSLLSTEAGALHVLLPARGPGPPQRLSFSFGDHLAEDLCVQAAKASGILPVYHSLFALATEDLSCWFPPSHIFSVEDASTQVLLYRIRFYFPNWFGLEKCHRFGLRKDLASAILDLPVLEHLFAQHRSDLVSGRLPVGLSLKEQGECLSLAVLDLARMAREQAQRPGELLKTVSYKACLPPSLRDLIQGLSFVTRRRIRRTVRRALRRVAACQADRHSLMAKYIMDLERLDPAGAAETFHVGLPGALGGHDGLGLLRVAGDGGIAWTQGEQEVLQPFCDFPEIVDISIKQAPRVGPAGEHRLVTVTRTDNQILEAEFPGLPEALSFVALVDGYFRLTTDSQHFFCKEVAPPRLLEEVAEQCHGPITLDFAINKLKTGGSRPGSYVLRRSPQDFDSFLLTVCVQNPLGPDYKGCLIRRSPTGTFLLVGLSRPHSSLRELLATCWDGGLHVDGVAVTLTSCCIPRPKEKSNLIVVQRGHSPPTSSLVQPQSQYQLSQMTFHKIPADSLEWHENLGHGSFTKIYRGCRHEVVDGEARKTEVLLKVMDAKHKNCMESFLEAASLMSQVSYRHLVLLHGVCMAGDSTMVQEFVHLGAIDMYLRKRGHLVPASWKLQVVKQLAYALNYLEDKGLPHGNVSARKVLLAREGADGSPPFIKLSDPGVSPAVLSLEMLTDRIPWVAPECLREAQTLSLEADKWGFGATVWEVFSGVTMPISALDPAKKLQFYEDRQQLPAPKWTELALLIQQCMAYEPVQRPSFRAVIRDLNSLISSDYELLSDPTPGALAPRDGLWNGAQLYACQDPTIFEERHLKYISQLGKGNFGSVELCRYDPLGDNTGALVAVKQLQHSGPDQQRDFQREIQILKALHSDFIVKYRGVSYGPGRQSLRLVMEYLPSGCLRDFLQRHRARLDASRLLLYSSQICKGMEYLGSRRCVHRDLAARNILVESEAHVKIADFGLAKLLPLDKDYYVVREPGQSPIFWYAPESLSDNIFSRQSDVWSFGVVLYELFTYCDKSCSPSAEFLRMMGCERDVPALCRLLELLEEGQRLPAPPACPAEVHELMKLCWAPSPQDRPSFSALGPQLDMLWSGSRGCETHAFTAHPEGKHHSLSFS
Procedure: as §2

Sequence of EGFR (P00533 25-1210): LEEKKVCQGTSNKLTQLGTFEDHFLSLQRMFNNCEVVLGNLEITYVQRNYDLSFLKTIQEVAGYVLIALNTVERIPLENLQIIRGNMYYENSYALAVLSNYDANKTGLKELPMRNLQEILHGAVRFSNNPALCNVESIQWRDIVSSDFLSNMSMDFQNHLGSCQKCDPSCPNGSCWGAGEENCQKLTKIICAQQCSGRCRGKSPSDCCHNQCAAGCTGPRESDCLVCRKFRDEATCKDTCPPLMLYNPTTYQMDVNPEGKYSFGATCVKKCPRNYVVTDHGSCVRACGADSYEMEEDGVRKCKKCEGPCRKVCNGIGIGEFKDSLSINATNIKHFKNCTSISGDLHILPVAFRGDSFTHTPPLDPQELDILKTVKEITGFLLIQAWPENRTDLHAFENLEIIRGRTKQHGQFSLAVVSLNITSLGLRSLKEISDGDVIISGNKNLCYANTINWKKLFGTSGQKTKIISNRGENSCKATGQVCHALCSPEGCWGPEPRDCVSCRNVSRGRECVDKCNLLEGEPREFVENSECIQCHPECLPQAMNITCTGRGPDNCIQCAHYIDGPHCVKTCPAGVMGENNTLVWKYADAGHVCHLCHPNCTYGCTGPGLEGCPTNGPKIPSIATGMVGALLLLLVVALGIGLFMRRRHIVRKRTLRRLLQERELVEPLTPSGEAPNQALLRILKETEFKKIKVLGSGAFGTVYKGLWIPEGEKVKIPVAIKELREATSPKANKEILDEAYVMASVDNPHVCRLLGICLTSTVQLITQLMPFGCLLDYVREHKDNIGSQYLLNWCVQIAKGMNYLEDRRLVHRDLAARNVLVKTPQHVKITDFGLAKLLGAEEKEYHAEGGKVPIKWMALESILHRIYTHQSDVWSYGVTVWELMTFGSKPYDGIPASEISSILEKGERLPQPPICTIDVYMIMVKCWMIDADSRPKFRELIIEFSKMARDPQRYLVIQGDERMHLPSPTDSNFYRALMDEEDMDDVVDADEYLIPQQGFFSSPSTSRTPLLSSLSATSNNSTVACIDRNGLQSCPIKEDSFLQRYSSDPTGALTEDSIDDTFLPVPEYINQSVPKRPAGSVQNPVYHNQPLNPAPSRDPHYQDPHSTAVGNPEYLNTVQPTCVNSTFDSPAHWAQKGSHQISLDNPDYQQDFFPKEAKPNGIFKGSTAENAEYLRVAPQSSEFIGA
Sequence of Btk (Q06187 whole entry): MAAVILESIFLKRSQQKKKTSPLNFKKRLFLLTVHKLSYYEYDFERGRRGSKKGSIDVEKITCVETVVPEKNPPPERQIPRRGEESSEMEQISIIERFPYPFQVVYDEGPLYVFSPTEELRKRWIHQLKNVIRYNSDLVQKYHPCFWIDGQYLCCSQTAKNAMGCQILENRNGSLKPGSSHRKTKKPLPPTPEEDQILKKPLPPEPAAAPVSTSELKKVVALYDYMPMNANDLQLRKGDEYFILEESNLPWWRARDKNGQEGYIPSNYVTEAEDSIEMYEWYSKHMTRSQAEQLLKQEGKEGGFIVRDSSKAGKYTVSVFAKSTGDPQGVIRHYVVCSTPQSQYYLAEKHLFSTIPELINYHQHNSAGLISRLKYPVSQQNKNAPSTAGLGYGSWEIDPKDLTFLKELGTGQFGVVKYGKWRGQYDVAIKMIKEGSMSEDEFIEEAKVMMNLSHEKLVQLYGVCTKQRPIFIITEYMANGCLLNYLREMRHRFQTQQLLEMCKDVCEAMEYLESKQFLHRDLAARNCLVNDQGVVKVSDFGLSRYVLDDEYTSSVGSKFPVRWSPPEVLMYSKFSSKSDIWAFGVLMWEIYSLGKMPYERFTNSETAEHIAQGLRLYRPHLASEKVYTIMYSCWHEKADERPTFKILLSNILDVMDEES
Sequence of Lck (P06239 whole entry, species assumed): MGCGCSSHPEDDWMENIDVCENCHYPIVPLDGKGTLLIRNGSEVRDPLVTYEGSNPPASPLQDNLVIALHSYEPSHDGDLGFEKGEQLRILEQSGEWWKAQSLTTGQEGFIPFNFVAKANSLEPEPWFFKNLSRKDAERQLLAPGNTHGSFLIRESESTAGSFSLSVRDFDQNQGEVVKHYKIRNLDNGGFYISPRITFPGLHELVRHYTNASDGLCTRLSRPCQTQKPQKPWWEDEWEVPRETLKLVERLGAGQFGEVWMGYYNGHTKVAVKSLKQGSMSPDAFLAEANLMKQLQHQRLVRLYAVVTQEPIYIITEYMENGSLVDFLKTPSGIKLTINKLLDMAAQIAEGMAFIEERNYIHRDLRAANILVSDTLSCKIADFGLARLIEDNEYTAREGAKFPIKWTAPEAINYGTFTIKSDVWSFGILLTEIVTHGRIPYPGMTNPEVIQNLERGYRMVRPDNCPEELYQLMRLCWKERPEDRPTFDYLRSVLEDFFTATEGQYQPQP

Question: For `CCNC(=O)N1CCC[C@@H](Nc2n[nH]c3nccc(Oc4ccc(C(=O)Nc5ccccn5)cc4)c23)C1` [compound 229, (3R)-N-ethyl-3-[(4-{4-[(pyridin-2-yl)carbamoyl]phenoxy}-1H-pyrazolo[3,4-b]pyridin-3-yl)amino]piperidine-1-carboxamide], which IC50 [1] is on record?
Answer: < 100 nM

Question: And the IC50 [2]?
Answer: 1000 to 10000 nM

Question: And the IC50 [3]?
Answer: > 10000 nM

Question: And the IC50 [4]?
Answer: > 10000 nM

Question: What does the source list for `CN(C)CCCC(=O)N[C@@H]1CCCN(c2n[nH]c3nccc(Oc4ccc(C(=O)Nc5cc(C(F)(F)F)ccn5)cc4)c23)C1` [compound 230, 4-({3-[(3R)-3-[4-(dimethylamino)butanamido]piperidin-1-yl]-1H-pyrazolo[3,4-b]pyridin-4-yl}oxy)-N-[4-(trifluoromethyl)pyridin-2-yl]benzamide]?
Answer: IC50 [1]: 100 to 1000 nM; IC50 [2]: > 10000 nM; IC50 [3]: > 10000 nM; IC50 [4]: > 10000 nM

Question: With `CCC(=O)N1CCC[C@@H](Nc2n[nH]c3nccc(Oc4ccc(-c5nc6ccccc6[nH]5)cc4)c23)C1` [compound 231, 1-[(3R)-3-({4-[4-(1H-1,3-benzodiazol-2-yl)phenoxy]-1H-pyrazolo[3,4-b]pyridin-3-yl}amino)piperidin-1-yl]propan-1-one] as the compound, how does the IC50 [1] read?
Answer: > 10000 nM

Question: What about the IC50 [2] of the same compound?
Answer: > 10000 nM

Question: And the IC50 [3]?
Answer: > 10000 nM

Question: What about the IC50 [4] of the same compound?
Answer: > 10000 nM

Question: How did the IC50 [1] turn out when `O=C(Nc1ccccn1)c1ccc(Oc2ccnc3[nH]nc(N[C@@H]4CCCN(C(=O)C5CC5)C4)c23)cc1` [compound 232, 4-[(3-{[(3R)-1-cyclopropanecarbonylpiperidin-3-yl]amino}-1H-pyrazolo[3,4-b]pyridin-4-yl)oxy]-N-(pyridin-2-yl)benzamide] was run?
Answer: < 100 nM

Question: What about the IC50 [2] of the same compound?
Answer: 1000 to 10000 nM

Question: And the IC50 [3]?
Answer: > 10000 nM

Question: What about the IC50 [4] of the same compound?
Answer: > 10000 nM

Question: Which results are given for `CN(C)C(=O)N1CCC[C@@H](Nc2n[nH]c3nccc(Oc4ccc(C(=O)Nc5ccccn5)cc4)c23)C1` [compound 233, (3R)-N,N-dimethyl-3-[(4-{4-[(pyridin-2-yl)carbamoyl]phenoxy}-1H-pyrazolo[3,4-b]pyridin-3-yl)amino]piperidine-1-carboxamide]?
Answer: IC50 [1]: < 100 nM; IC50 [2]: > 10000 nM; IC50 [3]: > 10000 nM; IC50 [4]: > 10000 nM

Question: What does the source list for `CCNC(=O)N[C@H]1CCCN(c2n[nH]c3nccc(Oc4ccc(C(=O)Nc5cc(C(F)(F)F)ccn5)cc4)c23)C1` [compound 234, 4-({3-[(3S)-3-[(ethylcarbamoyl)amino]piperidin-1-yl]-1H-pyrazolo[3,4-b]pyridin-4-yl}oxy)-N-[4-(trifluoromethyl)pyridin-2-yl]benzamide]?
Answer: IC50 [1]: 100 to 1000 nM; IC50 [2]: > 10000 nM; IC50 [3]: > 10000 nM; IC50 [4]: > 10000 nM

Question: With `C=CC(=O)N1CCC[C@@H](Nc2n[nH]c3nccc(Oc4cccc(C(=O)Nc5ccc(C(C)C)c(C)c5)c4)c23)C1` [compound 250, (R)-3-(3-(1-acryloylpiperidin-3-ylamino)-1H-pyrazolo[3,4-b]pyridin-4-yloxy)-N-(4-isopropyl-3-methylphenyl)benzamide] as the compound, how does the IC50 [1] read?
Answer: < 100 nM

Question: And the IC50 [2]?
Answer: < 100 nM

Question: And the IC50 [3]?
Answer: < 100 nM

Question: What about the IC50 [4] of the same compound?
Answer: < 100 nM

Question: With `Cc1cc(NC(=O)c2cccc(Oc3ccnc4[nH]nc(N[C@@H]5CCCN(C(=O)C#CCO)C5)c34)c2)ccc1C(C)C` [compound 251, (R)-3-(3-(1-(4-hydroxybut-2-ynoyl)piperidin-3-ylamino)-1H-pyrazolo[3,4-b]pyridin-4-yloxy)-N-(4-isopropyl-3-methylphenyl)benzamide] as the compound, how does the IC50 [1] read?
Answer: < 100 nM

Question: And the IC50 [2]?
Answer: < 100 nM

Question: And the IC50 [3]?
Answer: 100 to 1000 nM

Question: What about the IC50 [4] of the same compound?
Answer: < 100 nM

Question: With `Cc1ccnc(NC(=O)c2ccc(Oc3ccnc4[nH]nc(N[C@@H]5CCCN(S(C)(=O)=O)C5)c34)cc2)c1` [compound 269, (R)-N-(4-methylpyridin-2-yl)-4-(3-(1-(methylsulfonyl)piperidin-3-ylamino)-1H-pyrazolo[3,4-b]pyridin-4-yloxy)benzamide] as the compound, how does the IC50 [1] read?
Answer: < 100 nM

Question: What about the IC50 [2] of the same compound?
Answer: 1000 to 10000 nM

Question: What about the IC50 [3] of the same compound?
Answer: 100 to 1000 nM

Question: What about the IC50 [4] of the same compound?
Answer: > 10000 nM

Question: What does the source list for `Cc1ccnc(NC(=O)c2ccc(Oc3ccnc4[nH]nc(N[C@@H]5CCCN(C(=O)C(N)=O)C5)c34)cc2)c1` [compound 270, (R)-4-(3-(1-(2-amino-2-oxoacetyl)piperidin-3-ylamino)-1H-pyrazolo[3,4-b]pyridin-4-yloxy)-N-(4-methylpyridin-2-yl)benzamide]?
Answer: IC50 [1]: < 100 nM; IC50 [2]: 100 to 1000 nM; IC50 [3]: 100 to 1000 nM; IC50 [4]: > 10000 nM

Question: Which IC50 [1] does the source give for `CCOP(=O)(CCCC(=O)N1CCC[C@@H](Nc2n[nH]c3nccc(Oc4ccc(C(=O)Nc5cc(C)ccn5)cc4)c23)C1)OCC` [compound 271, (R)-diethyl 4-(3-(4-(4-(4-methylpyridin-2-ylcarbamoyl)phenoxy)-1H-pyrazolo[3,4-b]pyridin-3-ylamino)piperidin-1-yl)-4-oxobutylphosphonate] here?
Answer: < 100 nM

Question: And the IC50 [2]?
Answer: > 10000 nM

Question: And the IC50 [3]?
Answer: 100 to 1000 nM

Question: What about the IC50 [4] of the same compound?
Answer: > 10000 nM

Question: What does the source list for `CCOP(=O)(CC(=O)N1CCC[C@@H](Nc2n[nH]c3nccc(Oc4ccc(C(=O)Nc5cc(C)ccn5)cc4)c23)C1)OCC` [compound 272, (R)-diethyl 2-(3-(4-(4-(4-methylpyridin-2-ylcarbamoyl)phenoxy)-1H-pyrazolo[3,4-b]pyridin-3-ylamino)piperidin-1-yl)-2-oxoethylphosphonate]?
Answer: IC50 [1]: < 100 nM; IC50 [2]: > 10000 nM; IC50 [3]: 100 to 1000 nM; IC50 [4]: > 10000 nM

Question: `CCOP(=O)(CCC(=O)N1CCC[C@@H](Nc2n[nH]c3nccc(Oc4ccc(C(=O)Nc5cc(C)ccn5)cc4)c23)C1)OCC` [compound 273, (R)-diethyl 3-(3-(4-(4-(4-methylpyridin-2-ylcarbamoyl)phenoxy)-1H-pyrazolo[3,4-b]pyridin-3-ylamino)piperidin-1-yl)-3-oxopropylphosphonate] was tested. Which IC50 [1] did it give?
Answer: < 100 nM

Question: What about the IC50 [2] of the same compound?
Answer: > 10000 nM

Question: What about the IC50 [3] of the same compound?
Answer: 1000 to 10000 nM

Question: And the IC50 [4]?
Answer: > 10000 nM

Question: Which results are given for `COCCCC(=O)N1CCC[C@@H](Nc2n[nH]c3nccc(Oc4ccc(C(=O)Nc5cc(C)ccn5)cc4)c23)C1` [compound 274, (R)-4-(3-(1-(4-methoxybutanoyl)piperidin-3-ylamino)-1H-pyrazolo[3,4-b]pyridin-4-yloxy)-N-(4-methylpyridin-2-yl)benzamide]?
Answer: IC50 [1]: < 100 nM; IC50 [2]: > 10000 nM; IC50 [3]: 100 to 1000 nM; IC50 [4]: > 10000 nM

Question: With `Cc1ccnc(NC(=O)c2ccc(Oc3ccnc4[nH]nc(N[C@@H]5CCN(C#N)C5)c34)cc2)c1` [compound 275, (R)-4-(3-(1-cyanopyrrolidin-3-ylamino)-1H-pyrazolo[3,4-b]pyridin-4-yloxy)-N-(4-methylpyridin-2-yl)benzamide] as the compound, how does the IC50 [1] read?
Answer: < 100 nM

Question: What about the IC50 [2] of the same compound?
Answer: 1000 to 10000 nM

Question: And the IC50 [3]?
Answer: 100 to 1000 nM

Question: What about the IC50 [4] of the same compound?
Answer: > 10000 nM

Question: With `Cc1ccnc(NC(=O)c2ccc(Oc3ccnc4[nH]nc(N[C@@H]5CCCN(C#N)C5)c34)cc2)c1` [compound 276, (R)-4-(3-(1-cyanopiperidin-3-ylamino)-1H-pyrazolo[3,4-b]pyridin-4-yloxy)-N-(4-methylpyridin-2-yl)benzamide] as the compound, how does the IC50 [1] read?
Answer: < 100 nM

Question: And the IC50 [2]?
Answer: 1000 to 10000 nM

Question: What about the IC50 [3] of the same compound?
Answer: 100 to 1000 nM

Question: And the IC50 [4]?
Answer: > 10000 nM

Question: `Cc1ccnc(NC(=O)c2ccc(Oc3ccnc4[nH]nc(NC5CCN(C(=O)C6(C#N)CC6)CC5)c34)cc2)c1` [compound 277, 4-(3-(1-(1-cyanocyclopropanecarbonyl)piperidin-4-ylamino)-1H-pyrazolo[3,4-b]pyridin-4-yloxy)-N-(4-methylpyridin-2-yl)benzamide] was tested. Which IC50 [1] did it give?
Answer: 100 to 1000 nM

Question: What about the IC50 [2] of the same compound?
Answer: 1000 to 10000 nM

Question: And the IC50 [3]?
Answer: 1000 to 10000 nM

Question: And the IC50 [4]?
Answer: > 10000 nM

Question: What does the source list for `Cc1ccnc(NC(=O)c2ccc(Oc3ccnc4[nH]nc(NC5CCN(C#N)CC5)c34)cc2)c1` [compound 278, 4-(3-(1-cyanopiperidin-4-ylamino)-1H-pyrazolo[3,4-b]pyridin-4-yloxy)-N-(4-methylpyridin-2-yl)benzamide]?
Answer: IC50 [1]: < 100 nM; IC50 [2]: 1000 to 10000 nM; IC50 [3]: 100 to 1000 nM; IC50 [4]: > 10000 nM

Question: For `Cc1ccnc(NC(=O)c2ccc(Oc3ccnc4[nH]nc(N[C@@H]5CCN(C(=O)C6(C#N)CC6)C5)c34)cc2)c1` [compound 279, (R)-4-(3-(1-(1-cyanocyclopropanecarbonyl)pyrrolidin-3-ylamino)-1H-pyrazolo[3,4-b]pyridin-4-yloxy)-N-(4-methylpyridin-2-yl)benzamide], which IC50 [1] is on record?
Answer: < 100 nM

Question: What about the IC50 [2] of the same compound?
Answer: > 10000 nM

Question: And the IC50 [3]?
Answer: 1000 to 10000 nM

Question: What about the IC50 [4] of the same compound?
Answer: > 10000 nM

Source: patent US9580416B2, “Inhibitors of Bruton's tyrosine kinase” (PHARMACYCLICS LLC, priority 2014, dated 2017)
